Test results reported in the CheMixHub viscosity set.

Test: xn = mol fraction of the nth substance listed

CC(CC(C)(C)C)CP(=O)([O-])CC(C)CC(C)(C)C.CCCCCCCC[P+](C)(C)C (stereo unspecified) + CCCCCCCCCCCC
viscosity [mPa·s], 101 kPa
Settings	298.15 K	303.15 K	308.15 K	313.15 K	318.15 K	323.15 K
x2 = 0.24	172	129	99.8	79.4	63.3	51.3
x2 = 0.41	58.2	46	36.5	30	25	21.3
x2 = 0.55	23.8	20.1	17.1	14.9	12.9	–

CCCCCC(C)O (stereo unspecified) + CCCCCCCCCCCC
298.15 K, 101 kPa
Settings	viscosity [mPa·s]
x2 = 0.0554	4.35
x2 = 0.0998	3.85
x2 = 0.1555	3.3
x2 = 0.1998	2.92
x2 = 0.2554	2.51
x2 = 0.2998	2.23
x2 = 0.3554	1.94
x2 = 0.4	1.74
x2 = 0.4555	1.54
x2 = 0.4999	1.42
x2 = 0.5554	1.3
x2 = 0.5998	1.22
x2 = 0.6554	1.16
x2 = 0.6998	1.12
x2 = 0.7553	1.09
x2 = 0.7999	1.08
x2 = 0.8554	1.07
x2 = 0.8995	1.06
x2 = 0.9546	1.11

CCCCCCCCCc1ccccc1 + CCCCCCCCCCCCCCCC
viscosity [mPa·s], 102 kPa
Settings	x1 = 0.1006	x1 = 0.2005	x1 = 0.3005	x1 = 0.4001	x1 = 0.5008	x1 = 0.6006	x1 = 0.6997	x1 = 0.7978	x1 = 0.9003
293.15 K	3.4	3.32	3.28	3.22	3.18	3.15	3.13	3.12	3.12
303.15 K	2.71	2.65	2.62	2.58	2.54	2.52	2.51	2.5	–
313.15 K	2.2	2.16	2.13	2.11	2.09	2.06	2.05	2.05	2.05
323.15 K	1.83	1.8	1.78	1.76	1.74	1.73	1.72	1.71	1.71

CCCCCCCCCCCCCCCCCCCc1ccccc1 + CCCCCCCCCCCCCCCCCCC
313.15 K, 101 kPa
Settings	viscosity [mPa·s]
x2 = 0.1066	7.51
x2 = 0.1924	7.01
x2 = 0.433	5.74
x2 = 0.4887	5.47
x2 = 0.6377	4.83
x2 = 0.7465	4.38
x2 = 0.8251	4.09

CC(C)NC(C)C + CCCCCCCCCCO
viscosity [mPa·s], 101 kPa
Settings	298.15 K	303.15 K	308.15 K
x1 = 0.0531	9.942	8.148	6.888
x1 = 0.1065	8.911	7.421	6.317
x1 = 0.1557	8.093	6.67	5.66
x1 = 0.2072	7.186	5.835	4.947
x1 = 0.2506	6.335	5.168	4.413
x1 = 0.3127	5.184	4.271	3.777
x1 = 0.4084	3.737	3.133	2.732
x1 = 0.5054	2.653	2.228	2.059
x1 = 0.6066	1.752	1.522	1.375
x1 = 0.7056	1.183	1.059	0.956
x1 = 0.8036	0.838	0.75	0.702
x1 = 0.853	0.689	0.628	0.587
x1 = 0.9073	0.531	0.494	0.467
x1 = 0.9521	0.459	0.43	0.358

CCCCCCCCCCCO + CCCCCCCCCCO
Settings	viscosity [mPa·s]
293.15 K, 101.33 kPa, x2 = 0.1426	16.47
293.15 K, 101.33 kPa, x2 = 0.4429	15.7
293.15 K, 101.33 kPa, x2 = 0.6078	15.37
293.15 K, 101.33 kPa, x2 = 0.7475	15.08
293.15 K, 101.33 kPa, x2 = 0.889	14.71
298.15 K, 101 kPa, x2 = 0.6999	12.35
298.15 K, 101.33 kPa, x2 = 0.1426	13.44
298.15 K, 101.33 kPa, x2 = 0.298	13.14
298.15 K, 101.33 kPa, x2 = 0.7475	12.33
298.15 K, 101.8 kPa, x2 = 0.1083	13.95
298.15 K, 101.8 kPa, x2 = 0.3183	13.43
298.15 K, 101.8 kPa, x2 = 0.5207	12.98
298.15 K, 101.8 kPa, x2 = 0.7164	12.54
308.15 K, 101.8 kPa, x2 = 0.1083	9.593
308.15 K, 101.8 kPa, x2 = 0.3183	9.242
308.15 K, 101.8 kPa, x2 = 0.5207	8.963
308.15 K, 101.8 kPa, x2 = 0.7164	8.674
308.15 K, 101.8 kPa, x2 = 0.907	8.384
318.15 K, 101.8 kPa, x2 = 0.1083	6.748
318.15 K, 101.8 kPa, x2 = 0.3183	6.559
318.15 K, 101.8 kPa, x2 = 0.5207	6.332
318.15 K, 101.8 kPa, x2 = 0.7164	6.148
318.15 K, 101.8 kPa, x2 = 0.907	5.962

CCCCCCCCCCCO + CCCCCCCCCO
viscosity [mPa·s]
Settings	x2 = 0.116	x2 = 0.3375	x2 = 0.5442	x2 = 0.7372	x2 = 0.7995	x2 = 0.9152
298.15 K, 101 kPa	–	–	–	–	10.35	–
298.15 K, 101.8 kPa	13.57	12.52	–	–	–	9.874
308.15 K, 101.8 kPa	9.384	8.667	8.041	7.476	–	6.965
318.15 K, 101.8 kPa	6.631	6.157	5.752	5.366	–	5.017

CC(C)NC(C)C + CCCCCCCCO
viscosity [mPa·s], 101 kPa
Settings	298.15 K	303.15 K	308.15 K
x1 = 0.0552	6.422	5.366	4.483
x1 = 0.1034	5.774	4.866	4.045
x1 = 0.1579	5.107	4.286	3.62
x1 = 0.2037	4.51	3.87	3.235
x1 = 0.2551	3.898	3.326	2.826
x1 = 0.3074	3.339	2.871	2.455
x1 = 0.4058	2.441	2.128	1.84
x1 = 0.5058	1.758	1.535	1.352
x1 = 0.606	1.265	1.143	1.046
x1 = 0.7025	0.916	0.84	0.76
x1 = 0.8044	0.664	0.616	0.58
x1 = 0.8545	0.571	0.537	0.502
x1 = 0.8931	0.509	0.487	0.452
x1 = 0.9418	0.442	0.431	0.401

CCCCCCCCCCCO + CCCCCCCCO
viscosity [mPa·s]
Settings	293.15 K	298.15 K	308.15 K	318.15 K
101 kPa, x2 = 0.1003	–	13.35	–	–
101 kPa, x2 = 0.6998	10.95	–	–	–
101.8 kPa, x2 = 0.1273	–	13.25	9.151	6.474
101.8 kPa, x2 = 0.3622	–	11.61	8.096	5.781
101.8 kPa, x2 = 0.5698	–	10.24	7.208	5.187
101.8 kPa, x2 = 0.756	–	9.094	6.447	4.673
101.8 kPa, x2 = 0.9212	–	7.658	5.5	4.027

CCCCCCCCCCCO + CCCCCCCO
viscosity [mPa·s]
Settings	x2 = 0.1397	x2 = 0.2254	x2 = 0.388	x2 = 0.5976	x2 = 0.7764	x2 = 0.9311
293.15 K, 101 kPa	–	14.95	–	–	–	–
298.15 K, 101.8 kPa	12.82	–	10.49	8.805	7.365	6.099
308.15 K, 101.8 kPa	8.867	–	7.363	6.26	5.311	4.433
318.15 K, 101.8 kPa	6.299	–	5.309	4.554	3.906	3.289

CC(C)NC(C)C + CCCCCCO
viscosity [mPa·s], 101 kPa
Settings	298.15 K	303.15 K	308.15 K
x1 = 0.0503	3.969	3.366	2.859
x1 = 0.1067	3.51	3.018	2.588
x1 = 0.1499	3.195	2.751	2.379
x1 = 0.2041	2.823	2.438	2.114
x1 = 0.253	2.501	2.171	1.901
x1 = 0.3054	2.188	1.9	1.675
x1 = 0.4026	1.665	1.475	1.318
x1 = 0.4986	1.272	1.156	1.046
x1 = 0.6007	0.952	0.883	0.813
x1 = 0.7077	0.718	0.675	0.628
x1 = 0.7994	0.582	0.547	0.514
x1 = 0.8518	0.52	0.492	0.462
x1 = 0.9021	0.471	0.443	0.42
x1 = 0.9545	0.42	0.401	0.378

CCCCCCCCCCCO + CCCCCCO
viscosity [mPa·s], 101.8 kPa
Settings	x2 = 0.1577	x2 = 0.4196	x2 = 0.6279	x2 = 0.7981	x2 = 0.9389
298.15 K	12.3	9.508	7.506	6.064	4.788
308.15 K	8.55	6.727	5.412	4.436	3.545
318.15 K	6.083	4.876	3.983	3.309	2.68

CCOC(=O)CC(C)=O + CCCCCCO
viscosity [mPa·s], 100 kPa
Settings	x1 = 0.1053	x1 = 0.1983	x1 = 0.2962	x1 = 0.3947	x1 = 0.4947	x1 = 0.5989	x1 = 0.6989	x1 = 0.7954	x1 = 0.892
293.15 K	3.828	3.026	2.545	2.245	2.034	1.867	1.749	1.688	1.655
298.15 K	3.286	2.644	2.285	2.022	1.809	1.651	1.571	1.555	1.538

CCCCCCn1cc[n+](C)c1.[Cl-] + CCCCCCn1cc[n+](C)c1.F[B-](F)(F)F
101 kPa
Settings	viscosity [mPa·s]
303.15 K, x1 = 0.2	375.2
303.15 K, x1 = 0.4	795.2
308.15 K, x1 = 0.4	552.8
313.15 K, x1 = 0.4	394.5
318.15 K, x1 = 0.6	563.8
323.15 K, x1 = 0.6	403.5
323.15 K, x1 = 0.8	843.9

CCOC(=O)CC(C)=O + CCCCCO
viscosity [mPa·s], 100 kPa
Settings	x1 = 0.0902	x1 = 0.1791	x1 = 0.2695	x1 = 0.3621	x1 = 0.4424	x1 = 0.5633	x1 = 0.6447	x1 = 0.7739	x1 = 0.8864
293.15 K	2.988	2.424	2.132	1.935	1.8	1.67	1.635	1.603	1.599
298.15 K	2.691	2.191	1.897	1.705	1.602	1.52	1.491	1.481	1.468

NCc1ccccc1 + CCCCCO
viscosity [mPa·s], 101.33 kPa
Settings	x1 = 0.1	x1 = 0.2004	x1 = 0.2999	x1 = 0.4	x1 = 0.4997	x1 = 0.6	x1 = 0.7003	x1 = 0.8	x1 = 0.8999
298.15 K	3.257	3.009	2.798	2.599	2.419	2.25	2.088	1.943	1.808
303.15 K	2.82	2.607	2.436	2.25	2.124	1.971	1.842	1.72	1.616
308.15 K	2.406	2.283	2.133	1.979	1.841	1.734	1.624	1.526	1.454

C=CCc1ccc(O)c(OC)c1 + CCCCCOC(C)=O
298.15 K, 101 kPa
Settings	viscosity [mPa·s]
x1 = 0.1	0.698
x1 = 0.162	1.11

O=[N+]([O-])c1cccc(O)c1 + CCCCCOC(C)=O
Settings	viscosity [mPa·s]
298.15 K, 101 kPa, x1 = 0.5	1.449

NCc1ccccc1 + CCCCN
viscosity [mPa·s], 100 kPa
Settings	x2 = 0.1	x2 = 0.2	x2 = 0.3	x2 = 0.4	x2 = 0.5	x2 = 0.6	x2 = 0.7	x2 = 0.8	x2 = 0.9
303.15 K	1.324	1.204	1.068	0.964	0.847	0.748	0.654	0.578	0.513
313.15 K	1.125	1.021	0.929	0.835	0.737	0.642	0.567	0.506	0.45
323.15 K	0.965	0.878	0.791	0.718	0.639	0.567	0.5	0.446	0.396

CCOC(=O)CC(C)=O + CCCCO
viscosity [mPa·s], 100 kPa
Settings	x1 = 0.077	x1 = 0.1552	x1 = 0.2375	x1 = 0.324	x1 = 0.4191	x1 = 0.5209	x1 = 0.6261	x1 = 0.74	x1 = 0.861
293.15 K	2.378	2.032	1.795	1.639	1.567	1.564	1.56	1.565	1.603
298.15 K	2.063	1.788	1.629	1.525	1.466	1.435	1.425	1.427	1.46

OCCO + CCCCO
298 K, 101.33 kPa
Settings	viscosity [mPa·s]
x1 = 0.1527	3.18
x1 = 0.5229	6.05
x1 = 0.7115	8.75
x1 = 0.868	12.33
